Patent US12509425B2, “Tablet comprising modoflaner as an active component” (VIRBAC, priority 2020, dated 2025)

Assay: Bioavailability study: Modoflaner plasma concentration in dogs after oral gel capsule
Format: in vivo
Conditions: oral gelatin capsule, same dosage per kg body weight, 5 dogs per group
Description: The highest plasma concentration measured was set to 1 and the other plasma concentrations are given relatively to this highest value.
Ten dogs, divided into two groups comprising five animals each, were orally treated with a gel capsule containing either modification I or IV of Modoflaner at the same dosage of Modoflaner per kg body weight.
For kinetic evaluation, blood was sampled at predetermined time points (0, 0.5, 1, 2, 4, 6, 8, 24, 32, 48, 72 and 144 hours) before and after treatment (n=12 per dog). All samples were deep-frozen immediately after plasma preparation and stored at −18° C. or below until shipment to the analytical laboratory.
The samples were analyzed with regard to their concentration in Modoflaner.
The plasma samples were deproteinized by mixing 100 μL plasma with 900 μL of a mixture of 100 mL of 0.40 g ammonium acetate in 1 L water plus 100 μL formic acid and 600 mL acetonitrile, treatment for 30 s on a vortex mixer and subsequent centrifugation. The quantitative determination was performed by HPLC (Column ZORBAX Eclipse Plus C18 Rapid Resolution HD, 2.1×50 mm, 1.8 μm Agilent Technologies; Isocratic pump: Mobile phase: Solution of methanol/water (7+3, v/v)+10 mMol ammonium formate+0.12 mL/L formic acid Flow rate: 0.5 mL/min; Binary pump: Mobile phase A: water+10 mMol ammonium formate+0.12 mL/L formic acid Mobile phase B: methanol+10 mMol ammonium formate+0.12 mL/L formic acid Flow rate: 0.6 mL/min) with detection by tandem mass spectrometry using a Sciex API 5500 mass spectrometer (negative ionisation mode using the transition from Modoflaner precursor ion at m/z 714 to its product ion at m/z 694). The lower limit of quantitation was 1 μg/L.
For calculation of the mean values, results below the limit of quantitation were set to half the limit of quantitation.

Compound: O=C(Nc1cccc(C(=O)Nc2c(I)cc(C(F)(C(F)(F)F)C(F)(F)F)cc2C(F)(F)F)c1F)c1ccc(F)nc1 [6-fluoro-N-(3-(2-iodo-4-(perfluoropropan-2-yl)-6-(trifluoromethyl)phenylcarbamoyl)-2-fluoro-phenyl)-nicotinamide]
- Cmax relative to Cmax of crystalline modification I: about 3 times
- Tmax (listed as modification IV): 4 h

Compound: O=C(Nc1cccc(C(=O)Nc2c(I)cc(C(F)(C(F)(F)F)C(F)(F)F)cc2C(F)(F)F)c1F)c1ccc(F)nc1 [crystalline modification I of Modoflaner, 6-fluoro-N-(3-(2-iodo-4-(perfluoropropan-2-yl)-6-(trifluoromethyl)phenylcarbamoyl)-2-fluoro-phenyl)-nicotinamide]
- Tmax: 32 h
